Source: patent US8222261B2, “Chemical compounds” (GlaxoSmithKline, LLC, priority 2006, dated 2012)

How the values were obtained:
[1] = test system: male C57BL/6 mice; experiment: Oral glucose tolerance in normal mice; type: in vivo; conditions: fasted mice, Example 1 30 mg/kg, DPPIV inhibitor 10 mg/kg oral, 2 g/kg dextrose oral 1 h after dosing
Protocol: Nine weeks old male C57BL/6 mice (Taconic farms, USA) were fasted overnight and randomly assigned to three different treatment groups (n=9-10 per treatment arm) to receive vehicle (0.5% HPMC/0.1% Tween80), a GPR119 agonist (Example 1, 30 mg/kg) or a positive control (10 mg/kg), specifically a DPPIV inhibitor known to improve glucose tolerance in vivo by preventing degradation of the GLP-1 and GIP. Vehicle or compounds were delivered by oral gavage at a volume of 10 mL/kg, and the tip of tail was nicked using a scalpel to allow whole blood glucose measurements. One hour after administration of vehicle or test compounds, 2 g/kg of dextrose was administered by oral gavage. Whole blood glucose levels were determined from the abrasion at the tip of the tail at time points as indicated in FIG. 16 using a Glucometer (Freestyle, Therasense). At the end of the study the mice were sacrificed by cervical dislocation.

[2] = test system: Male Sprague-Dawley rats; experiment: Glucose stimulated insulin secretion and glucose disposal in rats, intravenous glucose tolerance test; type: in vivo; conditions: 10 mg/kg oral, 0.5 g/kg dextrose i.v. 90 min after dosing, vs vehicle
Protocol: Male Sprague-Dawley rats (Charles River Laboratories, USA) had catheters surgically implanted into the jugular vein and allowed to recover for one week. On the day of the experiment, food was removed in the morning and animals were randomly assigned to two treatment groups, vehicle (n=8) or GPR119 agonist (Example 1; n=9). In the afternoon, baseline blood samples were collected prior to, and 90 minutes following oral administration of either vehicle (0.5% HPMC/0.1% Tween80) or 10 mg/kg Example 1. The intravenous glucose tolerance test was initiated immediately after the 90 minute blood sample by intravenous infusion of 0.5 g/kg dextrose over 15-30 seconds into the jugular vein, Blood samples were collected from the jugular vein at 2, 5, 10, 15, and 30 min and treated as described for the hyperglycemic clamp. Serum was collected for analysis of glucose levels using an Olympus AU640 clinical chemistry analyzer (Olympus America Inc, Melville, N.Y.) and insulin levels by an electrochemoluminescence assay (Bioveris, Gaithersburg Md.). The rats were sacrificed at the end of the study by an overdose of Nembutal.
FIG. 14 and FIG. 15 show circulating plasma glucose and insulin concentrations at each time point throughout the intravenous glucose tolerance test. The data is represented as the average glucose and insulin levels±SEM for all animals in for the two treatment groups.

[3] = test system: Male Sprague-Dawley rats; experiment: Effect on circulating GLP-1 and GIP in vivo in rats; conditions: 10 mg/kg oral
Protocol: On the day before the experiment, food was removed in the afternoon and the following morning animals were randomly assigned to two treatment groups, vehicle (n=7) or a GPR119 agonist (Example 1; n=8). Blood samples were collected prior to, and 90 minutes following oral administration of either vehicle (0.5% HPMC/0.1% Tween80) or 10 mg/kg of Example 1. Blood samples were treated as described above and analyzed for incretin hormones, plasma glucose and insulin. The rats were sacrificed at the end of the study by an overdose of Nembutal® pentobarbital.
Data is represented as line graphs of the measurements prior to gavage (Pre) and 90 min following administration of vehicle or GPR119 agonist (Post) analyzed for total GLP-1 (FIG. 7), total GIP (FIG. 8), plasma glucose (FIG. 9) and insulin (FIG. 10) for individual animals.

[4] = test system: transgenic wild type (WT) and GPR119 knock-out (KO) mice; experiment: Oral glucose tolerance in wild type and GPR119 knockout mice; type: in vivo; conditions: 2 g/kg dextrose oral 1 h after dosing
Protocol: Male transgenic wild type (WT) and GPR119 knock-out (KO) mice (Charles River Laboratories, USA), at an age of 12 weeks, were fasted overnight (approximately 15 hrs) then randomly grouped (n=8-10) to receive vehicle (0.5% HPMC/0.1% Tween80), a GPR119 agonist (30 mg/kg) or a positive control (10 mg/kg), the DPPIV inhibitor as described above. Vehicle or compounds were delivered orally by oral gavage at a volume of 10 mL/kg, and the tip of tail was nicked using a scalpel to allow whole blood glucose measurements. One hour after administration of vehicle or test compounds, dextrose was administered orally at 2 g/kg. Whole blood glucose levels were measured prior to, and 10, 20, 30, 45, 60, 90 and 120 min after the oral glucose load using a Glucometer (Freestyle, Therasense) from the tip of tail. At the end of the study the mice were sacrificed by cervical dislocation.
The glucose tolerance was calculated as the area under the glucose curve (AUC). Data is represented as box plots summarizing the distribution of data for each treatment group, as described above. Horizontal lines represent the mean data.

[5] = test system: Male Wistar rats; experiment: Glucose stimulated insulin secretion in rats, hyperglycemic clamp; type: in vivo
Protocol: Male Wistar rats (Taconic farms, USA), weighing 300-350 gram, had catheters surgically implanted into the jugular and femoral veins and allowed to recover for one week following the surgery. On the day before the experiment, food was removed in the afternoon for an overnight fast. The following morning animals were randomly assigned to three treatment groups, vehicle (n=19) and either 1 mg/kg (n=8) or 10 mg/kg (n=8) of a GPR119 agonist (Example 1), and baseline blood samples were collected from the jugular vein. Animals were then administered either vehicle or Example 1 by oral gavage. A second blood sample was collected approximately 90 minutes after the oral gavage immediately prior to starting the hyperglycemic clamp. The clamp was initiated by infusing an empirically determined glucose bolus over 15-30 seconds into the femoral vein, followed by a variable rate glucose infusion adjusted to achieve a stable plasma glucose level of 190-210 mg/dl. After infusion of the glucose bolus, blood samples were collected every 5 minutes for glucose measurements. Samples for C-peptide level were collected a 2, 5, 10, 15, 20, 25, 30, 46, 60, 90 and 120 minutes during the hyperglycemic clamp. C-peptide was measured as a surrogate for insulin as it is co-secreted with insulin in equimolar amount with lower hepatic clearance, thus a better reflection of insulin secretion from the pancreatic β-cells. All blood samples were placed in individual tubes containing a gel clot activator (Cat # T-MG, Terumo Medial Corporation, Elkton, Md.) and allowed to clot in room temperature for 20 min before centrifugation and collection of serum. Glucose levels were measured using an Olympus AU640 analyzer (Olympus America Inc, Melville, N.Y.), and C-peptide levels by an RIA (Linco Diagnostic services, St Charles, Mo.). The rats were sacrificed at the end of the study by an overdose of Nembutal.
There was no difference in plasma glucose levels between treatment groups. […] The characteristic biphasic insulin secretion response (measured as an increase in C-peptide levels) elicited by the rapid increase in plasma glucose levels is shown in FIG. 13, with the first phase occurring within the first 5 minutes and the second phase from 15 minutes and beyond.

[6] = fasted rats, 90 min after dosing vs pre-dose
[7] = rats, 90 min, vs vehicle or baseline

CC(C)OC(=O)N1CCC(Oc2ncnc3c2CCN3c2ccc(S(C)(=O)=O)cc2F)CC1 [Example 1, 1-Methylethyl 4-({7-[2-fluoro-4-(methylsulfonyl)phenyl]-6,7-dihydro-5H-pyrrolo[2,3-d]pyrimidin-4-yl}oxy)-1-piperidinecarboxylate]
glucose disposal during the oral glucose tolerance test (whole blood glucose) [1]: significantly enhanced
area under the glucose curve (AUC) [2]: significantly reduced
area under the insulin curve [2]: significantly increased
peak (2 minute) insulin response [2]: significantly increased
rate of glucose elimination [2]: significantly increased
circulating levels of total GIP [3, 6]: increases
circulating levels of total GLP-1 [3, 6]: increases
fasting glucose [3, 7]: not significantly affected
fasting insulin [3, 7]: not significantly affected
glucose tolerance ([4]; GPR119 KO mice, 30 mg/kg oral): no effect
reduction of total glucose AUC ([4]; WT mice, Example 1 30 mg/kg, DPPIV inhibitor 10 mg/kg oral): 28%
glucose infusion rates (GIR) required to sustain the hyperglycemic clamp ([5]; 10 mg/kg oral, compared to 1 mg/kg or vehicle): required more exogenous glucose
C-peptide levels (surrogate for insulin secretion) ([5]; 10 mg/kg oral, compared to vehicle or 1 mg/kg, throughout the hyperglycemic clamp): significantly increased
plasma glucose levels achieved during the hyperglycemic clamp ([5]; 1 or 10 mg/kg oral vs vehicle, clamp started about 90 min after gavage): no difference
first (0-5 min) and second phase (15-90 min) glucose stimulated insulin secretory response ([5]; hyperglycemic clamp): augments
